The nature of data set [1]: Octanol/water distribution coefficient (log P value, OECD Test Guideline 107). It is filed as physicochemical. The source says:
The octanol/water distribution coefficient is a value referred to as a log P value and refers to a value defined in OECD Test Guideline 107. As the log P value is larger, the hydrophobicity is higher. As the log P value is smaller, the hydrophilicity is higher.

A short description of data set [2]: Solubility of organic compound in the ink. Format: physicochemical. As to conditions: in the ink of Comparative Example 4. The source says: Incidentally, values in the table are in mass percent. Pigment, dye, and dispersion resin in the table each show the amount of solid matter.

This is an account of results in US10894412B2, “Ink jet recording apparatus” (Seiko Epson Corporation, priority 2018, dated 2021).

`COC(=O)c1ccc(C(=O)OC)cc1` [dimethyl terephthalate] returned an octanol/water distribution coefficient in data set [1] of 2.25. The solubility result in data set [2] is reported as “poor”.
